# Source: PubChem BioAssay AID2060499 (Molecular Pharmacology Branch, DTP, NCI, 2025)
# System: 777334-354-R2-J4-PDC tumor spheroids with HUVEC/MSC, viability
# Experiment: Anticancer human tumor 777334-354-R2-J4-PDC patient-derived pancreatic adenocarcinoma cell line growth inhibition [GQUAD]
# Settings: for IC50: curve of first compound; for viability, T/C: stronger effect = lower value
# Procedure, shortened: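 Tumor cells were grown as complex spheroids with HUVEC endothelial cells and mesenchymal stem cells as stroma. G-quadruplex stabilizers were combined with targeted agents over half-log dilutions from near the clinical Cmax, or from 10 microM.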
# [1] = second compound 0.0316 µM, first compound 0.000999 µM
# [2] = second compound 0.0316 µM, first compound 0.00316 µM
# [3] = second compound 0.0316 µM, first compound 0.00999 µM
# [4] = second compound 0.0316 µM, first compound 0.0316 µM
# [5] = second compound 0.0316 µM, first compound 0.0999 µM
# [6] = second compound 0.0316 µM, first compound 0.316 µM
# [7] = second compound 0.1 µM, first compound 0.000999 µM
# [8] = second compound 0.1 µM, first compound 0.00316 µM
# [9] = second compound 0.1 µM, first compound 0.00999 µM
# [10] = second compound 0.1 µM, first compound 0.0316 µM
# [11] = second compound 0.1 µM, first compound 0.0999 µM
# [12] = second compound 0.1 µM, first compound 0.316 µM
# [13] = second compound 0.316 µM, first compound 0.000999 µM
# [14] = second compound 0.316 µM, first compound 0.00316 µM
# [15] = second compound 0.316 µM, first compound 0.00999 µM
# [16] = second compound 0.316 µM, first compound 0.0316 µM
# [17] = second compound 0.316 µM, first compound 0.0999 µM
# [18] = second compound 0.316 µM, first compound 0.316 µM
# [19] = second compound 1 µM, first compound 0.000999 µM
# [20] = second compound 1 µM, first compound 0.00316 µM
# [21] = second compound 1 µM, first compound 0.00999 µM
# [22] = second compound 1 µM, first compound 0.0316 µM
# [23] = second compound 1 µM, first compound 0.0999 µM
# [24] = second compound 1 µM, first compound 0.316 µM
# [25] = second compound 3.16 µM, first compound 0.000999 µM
# [26] = second compound 3.16 µM, first compound 0.00316 µM
# [27] = second compound 3.16 µM, first compound 0.00999 µM
# [28] = second compound 3.16 µM, first compound 0.0316 µM
# [29] = second compound 3.16 µM, first compound 0.0999 µM
# [30] = second compound 3.16 µM, first compound 0.316 µM
# [31] = second compound 10 µM, first compound 0.000999 µM
# [32] = second compound 10 µM, first compound 0.00316 µM
# [33] = second compound 10 µM, first compound 0.00999 µM
# [34] = second compound 10 µM, first compound 0.0316 µM
# [35] = second compound 10 µM, first compound 0.0999 µM
# [36] = second compound 10 µM, first compound 0.316 µM
# 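Also: spheroids exposed to compounds for 7 days before readout.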
smiles,measurement,setting,value
CC[C@@]1(O)C(=O)OCc2c1cc1n(c2=O)Cc2cc3c(CN(C)C)c(O)ccc3nc2-1 + CN(C)c1ccc(Nc2c3ccc(NC(=O)CCN4CCCC4)cc3nc3cc(NC(=O)CCN4CCCC4)ccc23)cc1,IC50,second compound 0.0316 µM,0.13 µM
same,IC50,second compound 0.1 µM,0.157 µM
same,IC50,second compound 0.316 µM,0.153 µM
same,IC50,second compound 1 µM,0.163 µM
same,IC50,second compound 3.16 µM,0.106 µM
same,IC50,second compound 10 µM,0.14 µM
same,"viability, T/C",[1],105%
same,"viability, T/C",[2],110%
same,"viability, T/C",[3],109%
same,"viability, T/C",[4],84.5%
same,"viability, T/C",[5],56%
same,"viability, T/C",[6],34.7%
same,"viability, T/C",[7],106%
same,"viability, T/C",[8],89.2%
same,"viability, T/C",[9],103%
same,"viability, T/C",[10],88.8%
same,"viability, T/C",[11],57.7%
same,"viability, T/C",[12],38.5%
same,"viability, T/C",[13],77.1%
same,"viability, T/C",[14],90.2%
same,"viability, T/C",[15],95.1%
same,"viability, T/C",[16],79.1%
same,"viability, T/C",[17],60.4%
same,"viability, T/C",[18],33.2%
same,"viability, T/C",[19],98.8%
same,"viability, T/C",[20],95.9%
same,"viability, T/C",[21],100%
same,"viability, T/C",[22],88.1%
same,"viability, T/C",[23],57.8%
same,"viability, T/C",[24],39.6%
same,"viability, T/C",[25],83.7%
same,"viability, T/C",[26],94.2%
same,"viability, T/C",[27],98.8%
same,"viability, T/C",[28],83.6%
same,"viability, T/C",[29],51.4%
same,"viability, T/C",[30],31.9%
same,"viability, T/C",[31],79.3%
same,"viability, T/C",[32],89.9%
same,"viability, T/C",[33],67.4%
same,"viability, T/C",[34],73.4%
same,"viability, T/C",[35],55.3%
same,"viability, T/C",[36],35.1%
CCc1c2c(nc3ccc(O)cc13)-c1cc3c(c(=O)n1C2)COC(=O)[C@]3(O)CC + CN(C)c1ccc(Nc2c3ccc(NC(=O)CCN4CCCC4)cc3nc3cc(NC(=O)CCN4CCCC4)ccc23)cc1,IC50,second compound 0.0316 µM,0.00523 µM
same,IC50,second compound 0.1 µM,0.00426 µM
same,IC50,second compound 0.316 µM,0.00524 µM
same,IC50,second compound 1 µM,0.00496 µM
same,IC50,second compound 3.16 µM,0.00316 µM
same,IC50,second compound 10 µM,0.00478 µM
same,"viability, T/C",[1],105%
same,"viability, T/C",[2],57.8%
same,"viability, T/C",[3],38.6%
same,"viability, T/C",[4],23.4%
same,"viability, T/C",[5],15.9%
same,"viability, T/C",[6],9.58%
same,"viability, T/C",[7],85.1%
same,"viability, T/C",[8],51.9%
same,"viability, T/C",[9],39.6%
same,"viability, T/C",[10],22.4%
same,"viability, T/C",[11],14.7%
same,"viability, T/C",[12],11.4%
same,"viability, T/C",[13],79.6%
same,"viability, T/C",[14],61.9%
same,"viability, T/C",[15],34.6%
same,"viability, T/C",[16],21.4%
same,"viability, T/C",[17],15.3%
same,"viability, T/C",[18],9.02%
same,"viability, T/C",[19],84.3%
same,"viability, T/C",[20],57%
same,"viability, T/C",[21],38.8%
same,"viability, T/C",[22],23.9%
same,"viability, T/C",[23],13.8%
same,"viability, T/C",[24],8.31%
same,"viability, T/C",[25],74.9%
same,"viability, T/C",[26],49.3%
same,"viability, T/C",[27],31.9%
same,"viability, T/C",[28],24.7%
same,"viability, T/C",[29],15.9%
same,"viability, T/C",[30],9.07%
same,"viability, T/C",[31],79.5%
same,"viability, T/C",[32],57.9%
same,"viability, T/C",[33],35.8%
same,"viability, T/C",[34],26.8%
same,"viability, T/C",[35],19.6%
same,"viability, T/C",[36],9.4%
